Results from a compilation of properties of binary mixtures (doi:10.1021/acs.jpcc.9b07923).

Test: xn = mol fraction of the nth substance listed
Settings: 100 kPa

Fc1ccccn1 + Fc1cccc[nH+]1.O=S(=O)([O-])C(F)(F)F
Settings	electrical conductivity [S/m]
242.2 K, x1 = 0.95	0.091
242.4 K, x1 = 0.5	0.0018
242.6 K, x1 = 0.86	0.075
244.9 K, x2 = 0.01	0.083
247.7 K, x1 = 0.9	0.109
251.9 K, x1 = 0.95	0.118
252.3 K, x1 = 0.86	0.113
252.8 K, x1 = 0.5	0.0037
254.7 K, x2 = 0.01	0.102
257.7 K, x1 = 0.9	0.168
262 K, x1 = 0.95	0.353
262.5 K, x2 = 0.01	0.12
262.6 K, x1 = 0.9	0.201
262.7 K, x1 = 0.86	0.161
267.6 K, x1 = 0.86	0.187
267.6 K, x1 = 0.9	0.24
271.8 K, x1 = 0.95	0.445
272.4 K, x1 = 0.9	0.279
272.5 K, x1 = 0.86	0.229
272.6 K, x2 = 0.01	0.137
272.7 K, x1 = 0.5	0.0132
277.5 K, x1 = 0.9	0.532
277.9 K, x1 = 0.86	0.295
282.6 K, x2 = 0.01	0.156
282.9 K, x1 = 0.86	0.408
287.4 K, x1 = 0.5	0.0369
287.7 K, x1 = 0.9	0.608
287.7 K, x2 = 0.01	0.161
292.1 K, x1 = 0.95	0.596
292.2 K, x1 = 0.5	0.0485
292.6 K, x1 = 0.86	0.658
296.9 K, x1 = 0.95	0.644
297.4 K, x1 = 0.5	0.0902
297.6 K, x1 = 0.86	0.711
297.6 K, x2 = 0.01	0.189
302.3 K, x1 = 0.5	0.185
302.5 K, x2 = 0.01	0.204
303 K, x1 = 0.86	0.769
303.3 K, x1 = 0.95	0.664
